The record followed here is US20220202948A1, “Agent for Eliminating Pluripotent Stem Cells” (Sumitomo Dainippon Pharma Co., Ltd., priority 2019, published 2022).

Molecules are shown by their SMILES. Square brackets hold non-standard residues; d marks the D form. Peptide text beside a SMILES is read from it. * marks the point of attachment. Dolaproine = CO[C@@H]([C@@H]1CCCN1)[C@@H](C)C(=O)O; Dil = CC[C@H](C)[C@H](NC)[C@@H](CC(=O)O)OC; X1 = C[C@@H](N*)[C@@H](O)c1ccccc1; NMeV = CN[C@H](C(=O)O)C(C)C

Series [1] in a line: Membrane permeability test, parallel artificial membrane permeability assay (PAMPA). The class given is in vitro ADME. The conditions noted are these: pH 7.4, 37° C.; for Papp at 4 h: read-out: permeability coefficient Pe (pH 7.4). As for the experimental part: By the parallel artificial membrane permeability assay (PAMPA), the membrane permeability of compounds of Examples was examined as follows: To the donor plate, System solution (pION inc.) and GIT Lipid-0 (pION inc.) were added in an amount of 200 μL and 4 μL for each well, respectively. To the acceptor plate, Acceptor Sink Buffer (pION inc.) was added in an amount of 200 μL. Both plates were superposed and incubated at 37° C. for 4 hours, and then, UVs in the solutions on the side of acceptor and on the side of donor were measured with a UV plate reader (190 to 500 nm). Compounds with poor UV absorption were measured by LC-MS. The permeability coefficient Pe (10^−6 cm/sec) of the drug was calculated by the following formula.
(In general: In PAMPA a lipid-coated filter parts donor from acceptor wells.)

In series [2] the target is T1, porcine tubulin (Sus scrofa, UniProt P02550+P02554).
T1 construct: purchased Cytoskeleton Inc. BK006P
The series is described as follows: Activity for inhibiting microtubule polymerization using porcine tubulins (1), tubulin polymerization inhibition assay kit. The conditions noted are these: compound 0.91 μM, absorbance at 340 nm at 37° C., FIG. 1. The class given is biochemical. As for the experimental part:
(§1) Using a tubulin polymerization inhibition assay kit (catalog number: BK006P) purchased from Cytoskeleton Inc., the polymerization inhibitory activity of compounds of Examples with a concentration of 0.91 μM was evaluated in accordance with the protocol appended to the kit. In summary of the protocol, to a 96 well microplate, 80 mM PIPES pH 6.9, 2 mM MgCl, 0.5 mM EGTA and 5% DMSO buffered solution of the compound to be evaluated was added in an amount of 10 μL for each well, and to these wells, 3 mg/mL porcine tubulin 80 mM PIPES pH 6.9, 2 mM MgCl, 0.5 mM EGTA, 1 mM GTP and 10.2% glycerol solution was added in an amount of 100 μL for each well. In order to examine a state in which tubulins polymerize over time, the absorbance at 340 nm was measured at 37° C., using a microplate reader. As the polymerization of tubulins progresses, the absorbance at 340 nm rises.

Series [3] has as its target T1, porcine tubulin. The series is described as follows: Activity for inhibiting microtubule polymerization using porcine tubulins (2), microtubule polymerization rate. The format is biochemical. Particulars: compound 9.1 μM, 60 minutes after assay initiation, relative to wells without compound; lower = stronger inhibition. On the procedure:
as §1, with “Examples at” for “Examples with”, “of 9.1” for “of 0.91”, “kit. To” for “kit. In summary of the protocol, to”
The tubulin polymerization inhibitory activity was evaluated based on the proportion of polymerized tubulins 60 minutes after the assay initiation. Specifically, the microtubule polymerization rate (%) was calculated by dividing the absorbance of tubulins that had polymerized at wells to which the compound had been added by the absorbance of tubulins that had polymerized at wells to which the compound had not been added, and multiplying the obtained value by 100.

T1 sequence (P02550 whole entry): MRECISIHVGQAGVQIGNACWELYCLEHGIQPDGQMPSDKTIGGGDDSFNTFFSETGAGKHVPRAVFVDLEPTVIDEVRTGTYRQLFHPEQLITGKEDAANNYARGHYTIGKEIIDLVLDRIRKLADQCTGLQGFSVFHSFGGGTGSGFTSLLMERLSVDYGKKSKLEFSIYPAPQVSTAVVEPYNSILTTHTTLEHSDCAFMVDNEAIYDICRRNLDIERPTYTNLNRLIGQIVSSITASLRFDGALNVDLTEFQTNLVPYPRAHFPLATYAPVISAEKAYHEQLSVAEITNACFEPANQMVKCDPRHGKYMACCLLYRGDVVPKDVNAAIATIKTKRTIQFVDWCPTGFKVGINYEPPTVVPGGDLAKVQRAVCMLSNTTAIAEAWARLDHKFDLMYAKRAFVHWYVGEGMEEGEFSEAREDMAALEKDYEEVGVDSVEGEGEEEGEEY
T1 sequence (P02554 whole entry): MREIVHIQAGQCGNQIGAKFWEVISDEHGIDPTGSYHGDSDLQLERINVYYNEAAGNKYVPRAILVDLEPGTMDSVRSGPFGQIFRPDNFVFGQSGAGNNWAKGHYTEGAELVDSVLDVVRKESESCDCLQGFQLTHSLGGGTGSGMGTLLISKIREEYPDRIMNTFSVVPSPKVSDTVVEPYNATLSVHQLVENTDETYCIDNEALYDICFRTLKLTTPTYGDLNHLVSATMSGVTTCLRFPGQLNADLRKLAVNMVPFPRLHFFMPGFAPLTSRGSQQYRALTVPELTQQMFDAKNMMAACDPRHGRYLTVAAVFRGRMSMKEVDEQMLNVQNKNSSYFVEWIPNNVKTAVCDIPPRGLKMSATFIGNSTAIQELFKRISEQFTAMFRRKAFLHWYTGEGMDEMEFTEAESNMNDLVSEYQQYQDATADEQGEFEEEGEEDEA

Regarding `CN[C@H](C(=O)N[C@H](C(=O)N(C)[C@H](/C=C(\C)C(=O)N[C@H](CC(=O)O)C(=O)O)C(C)C)C(C)(C)C)C(C)(C)c1cn(C)c2ccccc12` [Example 5], the Papp at 4 h in series [1] was < 0.1 ×10⁻⁶ cm/s.
On to `CN[C@H](C(=O)N[C@H](C(=O)N(C)[C@H](/C=C(\C)C(=O)O)C(C)C)C(C)(C)C)C(C)(C)c1cn(C)c2ccccc12` [Hemiasterlin, reference compound], for which the Papp at 4 h in series [1] is 25.6 ×10⁻⁶ cm/s. Besides, the “activity for inhibiting microtubule polymerization” value in series [2] is “comparable activities for inhibiting microtubule polymerization”. In series [3], the “Microtubule polymerization rate (%)” value was 0%.
Turning to `CN[C@H](C(=O)N[C@H](C(=O)N(C)[C@H](/C=C(\C)C(=O)N[C@H](CCC(=O)NCCCCN1C(=O)CC(SC[C@H](N)C(=O)O)C1=O)C(=O)O)C(C)C)C(C)(C)C)C(C)(C)c1ccccc1` (stereo partly drawn) [Example 48], the Papp at 4 h in series [1] is 5.8 ×10⁻⁶ cm/s. The “Microtubule polymerization rate (%)” value in series [3] worked out at 0%.
For `C/C(=C\[C@H](C(C)C)N(C)C(=O)[C@@H](NC(=O)[C@H]1CCCCN1C(C)C)C(C)(C)C)C(=O)N[C@H](CCC(=O)O)C(=O)O` [Example 3, N-[(2E,4S)-2,5-Dimethyl-4-(methyl {3-methyl-N-[(2R)-1-(propan-2-yl)piperidine-2-carbonyl]-L-valyl}amino)hex-2-enoyl]-D-glutamic acid], in that order: < 0.1 ×10⁻⁶ cm/s and 5%.
For `CN[C@H](C(=O)N[C@H](C(=O)N(C)[C@H](/C=C(\C)C(=O)N[C@@H](CCC(=O)NCCN1C(=O)CC(SC[C@H](N)C(=O)O)C1=O)C(=O)O)C(C)C)C(C)(C)C)C(C)(C)c1cn(C)c2ccccc12` (stereo partly drawn) [Example 49], the Papp at 4 h in series [1] was < 0.1 ×10⁻⁶ cm/s. Besides, the “Microtubule polymerization rate (%)” value in series [3] amounted to 0%.
Turning to `CN[C@H](C(=O)N[C@H](C(=O)N(C)[C@H](/C=C(\C)C(=O)N[C@H](CCC(=O)O)C(=O)O)C(C)C)C(C)(C)C)C(C)(C)c1cn(C)c2ccccc12` [Example 1, N,β,β-tetramethyl-L-tryptophyl-N-[(3S,4E)-6-{[(1R)-1,3-dicarboxypropyl]amino}-2,5-dimethyl-6-oxohex-4-en-3-yl]-N,3-dimethyl-L-valinamide], in series [1], the Papp at 4 h is < 0.1 ×10⁻⁶ cm/s. In series [2], the “activity for inhibiting microtubule polymerization” value was “comparable activities for inhibiting microtubule polymerization”.
For `CN[C@H](C(=O)N[C@H](C(=O)N(C)[C@H](/C=C(\C)C(=O)N[C@H](CCC(=O)NCCN1C(=O)CC(SC[C@H](N)C(=O)O)C1=O)C(=O)O)C(C)C)C(C)(C)C)C(C)(C)c1ccccc1` (stereo partly drawn) [Example 37, (3S,6S,9S,10E,14R)-14-(3-{[2-(3-{[(2R)-2-Amino-2-carboxyethyl]sulfanyl}-2,5-dioxopyrrolidin-1-yl)ethyl]amino}-3-oxopropyl)-6-tert-butyl-8,11-dimethyl-4,7,12-trioxo-3-(2-phenylpropan-2-yl)-9-(propan-2-yl)-2,5,8,13-tetraazapentadec-10-en-15-oic acid], the Papp at 4 h in series [1] turned out to be 0.2 ×10⁻⁶ cm/s. In addition, the “Microtubule polymerization rate (%)” value in series [3] amounted to 9%.
On to `CN[C@H](C(=O)N[C@H](C(=O)N(C)[C@H](/C=C(\C)C(=O)N[C@@H](CC(=O)NCCN1C(=O)CC(SC[C@H](N)C(=O)O)C1=O)C(=O)O)C(C)C)C(C)(C)C)C(C)(C)c1ccccc1` (stereo partly drawn) [Example 41], for which, in series [1], the Papp at 4 h was < 0.1 ×10⁻⁶ cm/s.
For `CN[C@H](C(=O)N[C@H](C(=O)N(C)[C@H](/C=C(\C)C(=O)N[C@@H](CCC(=O)O)C(=O)O)C(C)C)C(C)(C)C)C(C)(C)c1ccccc1` [Example 9], in series [1], the Papp at 4 h was < 0.1 ×10⁻⁶ cm/s. In addition, the “Microtubule polymerization rate (%)” value in series [3] is 5%.
For `CN[C@H](C(=O)N[C@H](C(=O)N(C)[C@H](/C=C(\C)C(=O)NCCCC[C@@H](NC(=O)CCCN1C(=O)CC(SC[C@H](N)C(=O)O)C1=O)C(=O)O)C(C)C)C(C)(C)C)C(C)(C)c1ccccc1` (stereo partly drawn) [Example 58], the Papp at 4 h in series [1] is 3 ×10⁻⁶ cm/s. Also, in series [3], the “Microtubule polymerization rate (%)” value amounted to 0%.
For `CN[C@H](C(=O)N[C@H](C(=O)N(C)[C@H](/C=C(\C)C(=O)N[C@H](CCC(=O)NCCCN1C(=O)CC(SC[C@H](N)C(=O)O)C1=O)C(=O)O)C(C)C)C(C)(C)C)C(C)(C)c1cn(C)c2ccccc12` (stereo partly drawn) [Example 54], in that order: < 0.1 ×10⁻⁶ cm/s and 0%.
For `CN[C@H](C(=O)N[C@H](C(=O)N(C)[C@H](/C=C(\C)C(=O)N[C@@H](CCCCNC(=O)CCCN1C(=O)CC(SC[C@H](N)C(=O)O)C1=O)C(=O)O)C(C)C)C(C)(C)C)C(C)(C)c1cn(C)c2ccccc12` (stereo partly drawn) [Example 57], the Papp at 4 h in series [1] was < 0.1 ×10⁻⁶ cm/s.
Take `CN[C@H](C(=O)N[C@H](C(=O)N(C)[C@H](/C=C(\C)C(=O)N[C@H](CCC(=O)O)C(=O)NCCN1C(=O)CC(SC[C@H](N)C(=O)O)C1=O)C(C)C)C(C)(C)C)C(C)(C)c1ccccc1` (stereo partly drawn) [Example 46]: the Papp at 4 h in series [1] is 3.5 ×10⁻⁶ cm/s. Moreover, the “Microtubule polymerization rate (%)” value in series [3] amounted to 0%.
Turning to `CN[C@H](C(=O)N[C@H](C(=O)N(C)[C@H](/C=C(\C)C(=O)NCCCC[C@@H](NC(=O)CCCN1C(=O)CC(SC[C@H](N)C(=O)O)C1=O)C(=O)O)C(C)C)C(C)(C)C)C(C)(C)c1cn(C)c2ccccc12` (stereo partly drawn) [Example 39], the Papp at 4 h in series [1] amounted to 1.4 ×10⁻⁶ cm/s. Besides, in series [3], the “Microtubule polymerization rate (%)” value stood at 2%.
As for `CC[C@H](C)[C@@H]([C@@H](CC(=O)N1CCC[C@H]1[C@H](OC)[C@@H](C)C(=O)N[C@H](C)[C@@H](O)c1ccccc1)OC)N(C)C(=O)[C@@H](NC(=O)[C@@H](NC)C(C)C)C(C)C` [MMAE, monomethyl auristatin, reference compound] (H-[NMeV]V[Dil][Dolaproine]-X1), the “permeability coefficient Pe (pH 7.4)” value in series [1] (4 hours) was 15.3 10^−6 cm/sec. For the same molecule, in series [2], the “activity for inhibiting microtubule polymerization” value was “comparable activities for inhibiting microtubule polymerization”.
Regarding `CN[C@H](C(=O)N[C@H](C(=O)N(C)[C@H](/C=C(\C)C(=O)N[C@@H](CCC(=O)NCCN1C(=O)CC(SC[C@H](N)C(=O)O)C1=O)C(=O)O)C(C)C)C(C)(C)C)C(C)(C)c1ccccc1` (stereo partly drawn) [Example 42], the Papp at 4 h in series [1] stood at 2.2 ×10⁻⁶ cm/s. In series [3], the “Microtubule polymerization rate (%)” value amounted to 0%.
Consider `CN[C@H](C(=O)N[C@H](C(=O)N(C)[C@H](/C=C(\C)C(=O)N[C@H](CC(=O)NCCN1C(=O)CC(SC[C@H](N)C(=O)O)C1=O)C(=O)O)C(C)C)C(C)(C)C)C(C)(C)c1ccccc1` (stereo partly drawn) [Example 40], for which the Papp at 4 h in series [1] worked out at 3 ×10⁻⁶ cm/s.
As for `CN[C@H](C(=O)N[C@H](C(=O)N(C)[C@H](/C=C(\C)C(=O)N[C@@H](CCC(=O)O)C(=O)O)C(C)C)C(C)(C)C)C(C)(C)c1cn(C)c2ccccc12` [Example 6], the Papp at 4 h in series [1] is < 0.1 ×10⁻⁶ cm/s. Also, the “Microtubule polymerization rate (%)” value in series [3] came to 4%.
With `CN[C@H](C(=O)N[C@H](C(=O)N(C)[C@H](/C=C(\C)C(=O)N[C@H](CCCCN)C(=O)O)C(C)C)C(C)(C)C)C(C)(C)c1cn(C)c2ccccc12` [Example 7], the Papp at 4 h in series [1] stood at 0.8 ×10⁻⁶ cm/s.
As for `CN[C@H](C(=O)N[C@H](C(=O)N(C)[C@H](/C=C(\C)C(=O)N[C@H](CCC(=O)O)C(=O)O)C(C)C)C(C)(C)C)C(C)(C)c1ccccc1` [Example 2, N,β,β-Trimethyl-L-phenylalanyl-N-[(3S,4E)-6-{[(1R)-1,3-dicarboxypropyl]amino}-2,5-dimethyl-6-oxohex-4-en-3-yl]-N,3-dimethyl-L-valinamide], the Papp at 4 h in series [1] is < 0.1 ×10⁻⁶ cm/s. Moreover, the “Microtubule polymerization rate (%)” value in series [3] is on record as 2%.
